The target of the experiment is ALK2 (Homo sapiens (Human), UniProt Q04771). In words: ALK2 inhibition, LanthaScreen Eu Kinase Binding Assay (ThermoFisher Scientific / Life Technologies). The settings on record: read-out: Measured Ki (IC50) Value for Compounds: IC50. On the procedure: Biochemical assays to measure the inhibitory effects of the compounds were performed by ThermoFisher Scientific (Life Technologies). ALK2 inhibition was tested using LanthaScreen™ Eu Kinase Binding Assay screening protocol.
Sequence of ALK2 (Q04771 21-509): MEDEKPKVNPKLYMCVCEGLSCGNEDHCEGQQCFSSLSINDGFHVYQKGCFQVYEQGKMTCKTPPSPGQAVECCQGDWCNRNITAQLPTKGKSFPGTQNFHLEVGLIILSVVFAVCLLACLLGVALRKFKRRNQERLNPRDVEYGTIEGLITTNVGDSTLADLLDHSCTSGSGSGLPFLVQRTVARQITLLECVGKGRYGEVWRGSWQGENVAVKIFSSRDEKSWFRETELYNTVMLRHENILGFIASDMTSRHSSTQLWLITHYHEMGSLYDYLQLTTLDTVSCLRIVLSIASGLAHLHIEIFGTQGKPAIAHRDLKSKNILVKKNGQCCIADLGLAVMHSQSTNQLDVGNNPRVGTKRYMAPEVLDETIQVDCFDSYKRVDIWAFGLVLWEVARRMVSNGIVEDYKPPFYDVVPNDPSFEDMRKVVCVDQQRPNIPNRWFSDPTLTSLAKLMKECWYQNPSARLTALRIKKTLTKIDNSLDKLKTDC
In general terms: Time-resolved FRET reads energy transfer from a long-lived donor to a nearby acceptor.

SMILES strings stand for the structures.

As to `COc1cc(-n2cnc(Nc3nc(N4CCC[C@H]4CO)nc4c3CN(Cc3ccccc3)CC4)c2)cc(OC)c1OC` [Compound 149c, (S)-(1-(6-benzyl-4-((1-(3,4,5-trimethoxyphenyl)-1H-imidazol-4-yl)amino)-5,6,7,8-tetrahydropyrido[4,3-d]pyrimidin-2-yl)pyrrolidin-2-yl)methanol], the IC50 was 100 to 1000 nM. As for `COc1cc(-n2cnc(Nc3nc(N4CCC[C@H]4C(N)=O)nc4ccsc34)c2)cc(OC)c1OC` [Compound 189a, (S)-1-(4-((1-(3,4,5-trimethoxyphenyl)-1H-imidazol-4-yl)amino)thieno[3,2-d]pyrimidin-2-yl)pyrrolidine-2-carboxamide], the IC50 is < 100 nM.

For the compound `COc1cc(-n2cnc(Nc3nc4c(c(N5CCC[C@@H]5CO)n3)COC4)c2)cc(OC)c1OC` [Compound 280b, (R)-(1-(2-((1-(3,4,5-trimethoxyphenyl)-1H-imidazol-4-yl)amino)-5,7-dihydrofuro[3,4-d]pyrimidin-4-yl)pyrrolidin-2-yl)methanol], the IC50 was < 100 nM.

With `OC[C@@H]1CCCN1c1nc(Nc2cn(-c3ccccc3)cn2)c2cccn2n1` [Compound 8c, (S)-(1-(4-((1-phenyl-1H-imidazol-4-yl)amino)pyrrolo[2,1-f][1,2,4]triazin-2-yl)pyrrolidin-2-yl)methanol], the IC50 is < 100 nM.

With `COc1cc(-n2cnc(Nc3nc(N4CCC[C@H]4CO)nc4c3COCC4)c2)cc(OC)c1OC` [Compound 342c, (S)-(1-(4-((1-(3,4,5-trimethoxyphenyl)-1H-imidazol-4-yl)amino)-7,8-dihydro-5H-pyrano[4,3-d]pyrimidin-2-yl)pyrrolidin-2-yl)methanol], the IC50 was < 100 nM. On to `COc1cc(-n2cnc(Nc3nc(N4CCC[C@H]4CO)c4cccnc4n3)c2)cc(OC)c1OC` [Compound 174b, (S)-(1-(2-((1-(3,4,5-trimethoxyphenyl)-1H-imidazol-4-yl)amino)pyrido[2,3-d]pyrimidin-4-yl)pyrrolidin-2-yl)methanol], for which the IC50 is < 100 nM. For the compound `OC[C@@H]1CCCN1c1nc(Nc2nc3ccccc3o2)c2sccc2n1` [Compound 352c, (S)-(1-(4-(benzo[d]oxazol-2-ylamino)thieno[3,2-d]pyrimidin-2-yl)pyrrolidin-2-yl)methanol], the IC50 was > 1000 nM. Take `COc1cc(-n2cnc(Nc3nc(N4CCC[C@@H]4CO)nc4cc(N5CCC[C@@H]5CO)ccc34)c2)cc(OC)c1OC` [Compound 306a, ((2R,2′R)-1,1′-(4-((1-(3,4,5-trimethoxyphenyl)-1H-imidazol-4-yl)amino)quinazoline-2,7-diyl)bis(pyrrolidine-2,1-diyl))dimethanol]: the IC50 was < 100 nM. Regarding `OC[C@@H]1CCCN1c1nc(Nc2cn(-c3cnc4ccccc4c3)cn2)c2cccn2n1` [Compound 38c, (S)-(1-(4-((1-(quinolin-3-yl)-1H-imidazol-4-yl)amino)pyrrolo[2,1-f][1,2,4]triazin-2-yl)pyrrolidin-2-yl)methanol], the IC50 is < 100 nM.

Take `OC[C@@H]1CCCN1c1nc(Nc2cn(-c3ccccc3)cn2)c2ccccc2n1` [Compound 32a, (S)-(1-(4-((1-phenyl-1H-imidazol-4-yl)amino)quinazolin-2-yl)pyrrolidin-2-yl)methanol]: the IC50 was < 100 nM. As for `CNC(=O)[C@@H]1CCCN1c1nc(Nc2cn(-c3cc(OC)c(OC)c(OC)c3)cn2)c2occc2n1` [Compound 252a, (S)—N-methyl-1-(4-((1-(3,4,5-trimethoxyphenyl)-1H-imidazol-4-yl)amino)furo[3,2-d]pyrimidin-2-yl)pyrrolidine-2-carboxamide], the IC50 was < 100 nM.

In the case of `COc1cc(-n2cnc(Nc3nc(N4CCC[C@@H]4CO)nc4cc(C#N)ccc34)c2)cc(OC)c1OC` [Compound 372a, (R)-2-(2-(hydroxymethyl)pyrrolidin-1-yl)-4-((1-(3,4,5-trimethoxyphenyl)-1H-imidazol-4-yl)amino)quinazoline-7-carbonitrile], the IC50 is < 100 nM. In the case of `N#Cc1ccc(-n2cnc(Nc3nc(N4CCC[C@H]4CO)nn4cccc34)c2)cc1` [Compound 116c, (S)-4-(4-((2-(2-(hydroxymethyl)pyrrolidin-1-yl)pyrrolo[2,1-f][1,2,4]triazin-4-yl)amino)-1H-imidazol-1-yl)benzonitrile], the IC50 was 100 to 1000 nM.

As to `OC[C@@H]1CCCN1c1nc(Nc2cn(-c3ccccc3)cn2)c2sccc2n1` [Compound 16b, (S)-(1-(4-((1-phenyl-1H-imidazol-4-yl)amino)thieno[3,2-d]pyrimidin-2-yl)pyrrolidin-2-yl)methanol], the IC50 was < 100 nM. As to `COc1cc(-n2cnc(Nc3nc(N4CCC[C@H]4C(N)=O)nc4cc[nH]c34)c2)cc(OC)c1OC` [Compound 162b, (S)-1-(4-((1-(3,4,5-trimethoxyphenyl)-1H-imidazol-4-yl)amino)-5H-pyrrolo[3,2-d]pyrimidin-2-yl)pyrrolidine-2-carboxamide], the IC50 is < 100 nM. As to `COc1cc(-n2cnc(Nc3nc(N4CCC[C@@H]4CO)nc4c3CN(C(C)C)C4=O)c2)cc(OC)c1OC` [Compound 275a, (R)-2-(2-(hydroxymethyl)pyrrolidin-1-yl)-6-isopropyl-4-((1-(3,4,5-trimethoxyphenyl)-1H-imidazol-4-yl)amino)-5H-pyrrolo[3,4-d]pyrimidin-7(6H)-one], the IC50 is < 100 nM. `COc1ccc(-n2cnc(Nc3nc(N4CCC[C@H]4CO)nn4cccc34)c2)cc1C(F)(F)F` [Compound 320b, (S)-(1-(4-((1-(4-methoxy-3-(trifluoromethyl)phenyl)-1H-imidazol-4-yl)amino)pyrrolo[2,1-f][1,2,4]triazin-2-yl)pyrrolidin-2-yl)methanol]: the IC50 was < 100 nM. Next, `COc1cc(-n2cnc(Nc3nc(N4CCC[C@H]4C(N)=O)nc4[nH]nc(C)c34)c2)cc(OC)c1OC` [Compound 401b, (S)-1-(3-methyl-4-((1-(3,4,5-trimethoxyphenyl)-1H-imidazol-4-yl)amino)-1H-pyrazolo[3,4-d]pyrimidin-6-yl)pyrrolidine-2-carboxamide]: > 1000 nM; `COc1cc(C(=O)N(C)C)cc(-n2cnc(Nc3nc(N4CCC[C@H]4CO)nn4cccc34)c2)c1` [Compound 426c, (S)-3-(4-((2-(2-(hydroxymethyl)pyrrolidin-1-yl)pyrrolo[2,1-f][1,2,4]triazin-4-yl)amino)-1H-imidazol-1-yl)-5-methoxy-N,N-dimethylbenzamide]: < 100 nM; `COc1cc(-n2cnc(Nc3nc(N4CCC[C@H]4CO)nc4sc(CN5CCCCC5)cc34)c2)cc(OC)c1OC` [Compound 113b, (S)-(1-(6-(piperidin-1-ylmethyl)-4-((1-(3,4,5-trimethoxyphenyl)-1H-imidazol-4-yl)amino)thieno[2,3-d]pyrimidin-2-yl)pyrrolidin-2-yl)methanol]: < 100 nM.

For `COc1cc(-n2cnc(Nc3nc(N4CCC[C@H]4CO)nc4c3CCNC4)c2)cc(OC)c1OC` [Compound 183c, (S)-(1-(4-((1-(3,4,5-trimethoxyphenyl)-1H-imidazol-4-yl)amino)-5,6,7,8-tetrahydropyrido[3,4-d]pyrimidin-2-yl)pyrrolidin-2-yl)methanol], the IC50 was < 100 nM. As for `COc1cc(C(N)=O)cc(-n2cnc(Nc3nc(N4CCC[C@H]4CO)nn4cccc34)c2)c1` [Compound 125c, (S)-3-(4-((2-(2-(hydroxymethyl)pyrrolidin-1-yl)pyrrolo[2,1-f][1,2,4]triazin-4-yl)amino)-1H-imidazol-1-yl)-5-methoxybenzamide], the IC50 was < 100 nM.

Turning to `COc1cc(-n2cnc(Nc3nc(N4CCC[C@H]4CO)c4c(C)nn(C5CCOCC5)c4n3)c2)cc(OC)c1OC` [Compound 454c, (S)-(1-(3-methyl-1-(tetrahydro-2H-pyran-4-yl)-6-((1-(3,4,5-trimethoxyphenyl)-1H-imidazol-4-yl)amino)-1H-pyrazolo[3,4-d]pyrimidin-4-yl)pyrrolidin-2-yl)methanol], the IC50 is < 100 nM. Then `OC[C@@H]1CCCN1c1nc(Nc2cn(C3CCCC3)cn2)c2cccn2n1` [Compound 50c, (S)-(1-(4-((1-cyclopentyl-1H-imidazol-4-yl)amino)pyrrolo[2,1-f][1,2,4]triazin-2-yl)pyrrolidin-2-yl)methanol], with < 100 nM; and `COc1cc(-n2cnc(Nc3nc(N4CCC[C@H]4C(=O)NC4CC4)nc4ccoc34)c2)cc(OC)c1OC` [Compound 247b, (S)—N-cyclopropyl-1-(4-((1-(3,4,5-trimethoxyphenyl)-1H-imidazol-4-yl)amino)furo[3,2-d]pyrimidin-2-yl)pyrrolidine-2-carboxamide], with < 100 nM; and `COc1cc(-n2cnc(Nc3nc(N4CCC[C@H]4CO)c4c(C)nn(CC5CC5)c4n3)c2)cc(OC)c1OC` [Compound 463c, (S)-(1-(1-(cyclopropylmethyl)-3-methyl-6-((1-(3,4,5-trimethoxyphenyl)-1H-imidazol-4-yl)amino)-1H-pyrazolo[3,4-d]pyrimidin-4-yl)pyrrolidin-2-yl)methanol], with < 100 nM. Then `COc1cc(-n2cnc(Nc3nc(N4CCC[C@H]4C(N)=O)nc4sccc34)c2)cc(OC)c1OC` [Compound 155a, (S)-1-(4-((1-(3,4,5-trimethoxyphenyl)-1H-imidazol-4-yl)amino)thieno[2,3-d]pyrimidin-2-yl)pyrrolidine-2-carboxamide], with < 100 nM; and `COc1cc(-n2cnc(Nc3nc(N4CCC[C@H]4CO)c4cccn4n3)c2)cc(OC)c1OC` [Compound 96b, (S)-(1-(2-((1-(3,4,5-trimethoxyphenyl)-1H-imidazol-4-yl)amino)pyrrolo[2,1-f][1,2,4]triazin-4-yl)pyrrolidin-2-yl)methanol], with < 100 nM; and `COc1cc(-n2cnc(Nc3nc(N4CCC[C@H]4C(N)=O)nc4c3CN(Cc3ccccc3)CC4)c2)cc(OC)c1OC` [Compound 152a, (S)-1-(6-benzyl-4-(1-(3,4,5-trimethoxyphenyl)-1H-imidazol-4-ylamino)-5,6,7,8-tetrahydropyrido[4,3-d]pyrimidin-2-yl)pyrrolidine-2-carboxamide], with 100 to 1000 nM.

As a reminder, the IC50 is the midpoint of a concentration-inhibition curve.

The record behind these values is patent publication US11661426B2, “Imidazole-containing inhibitors of ALK2 kinase” (BioCryst Pharmaceuticals, Inc., priority 2017, dated 2023).
